Results from patent publication US10799600B1, “Targeted nanoparticles” (nanoDERM Sciences, Inc., priority 2010, dated 2020).

Legend:
[1] = test system: multi-drug resistant (and expanded-spectrum beta-lactamase resistant) Acinetobacter baumannii (BAA-1605); experiment: Clearing zone test on tryptic soy agar against multi-drug resistant Acinetobacter baumannii; type: cell-based; settings: for resistance / sensitivity to control antibiotics: clinically relevant dose 10 μg/ml, A. baumannii
Protocol: (§1) FIG. 7 nanogels conjugated with polymyxin B (PmxnB) or vancomycin (VCM) and/or loaded with 5 mg/nil penicillin/streptomycin (Pen/Strep), and tested on tryptic soy agar for activity against multi-drug resistant (and expanded-spectrum beta-lactamase resistant) Acinetobacter baumannii (BAA-1605). (1) unmodified particle, Pen/Strep loaded; (2) unmodified particle; (3) Pen-Strep loaded and conjugated with PmxnB; (4) conjugated with PmxnB; (5) conjugated with VCM, Pen-Strep loaded; (6) conjugated with VCM; (7) conjugated with PmxnB/AMCA, Pen/Strep loaded; (8) conjugated with PmxnB/AMCA (fluorescent agent); (9) conjugated with VCM/AMCA, Pen/Strep loaded; (10) conjugated with VCM/AMCA; (11) PmxnB at 5 mg/ml; (12) VCM at 5 mg/ml; (13) Pen/Strep at 5 mg/ml; (14) PmxnB at 100 μg/ml; (15) VCM at 100 μg/ml; (16) Pen/Strep at 100 μg/ml; (17) PmxnB at 10 μg/ml; (18) VCM at 10 μg/ml; (19) Pen/Strep at 10 μg/ml.
(§2) Acinetobacter baumannii (a) treated with the hydrogel conjugated with polymyxin B (PMB) produced a clearing zone of ˜15 mm in diameter. […] Methicillin-resistant S. aureus (MRSA) (b) treated with VCM-conjugated particles produced a clearing zone of ˜15 mm in diameter.
(§3) The concept for targeted killing of bacterial pathogens with the hydrogels of the invention is illustrated in FIG. 1.

[2] = test system: multi-drug resistant (MRSA) Staphylococcus aureus (NRS-385); experiment: Clearing zone test on tryptic soy agar against MRSA; type: cell-based; settings: for resistance / sensitivity to control antibiotics: clinically relevant dose 10 μg/ml
Protocol: as §1, with “FIG. 8 nanogels conjugated” for “FIG. 7 nanogels conjugated”, “with 5 mg/ml penicillin/streptomycin (Pen/Strep),” for “with 5 mg/nil penicillin/streptomycin (Pen/Strep),”, “multi-drug resistant (MRSA) Staphylococcus aureus (NRS-385). (1) unmodified” for “multi-drug resistant (and expanded-spectrum beta-lactamase resistant) Acinetobacter baumannii (BAA-1605). (1) unmodified”, “at 5 mg/nil; (14) PmxnB” for “at 5 mg/ml; (14) PmxnB”
as §2, §3

| Compound | resistance / sensitivity to control antibiotics [1] | inhibition (clearing zone) ([1]; free control antibiotics (10 μg/ml), MDR A. baumannii) | resistance / sensitivity to control antibiotics [2] | clearing zone ([2]; free antibiotic 10 μg/ml) | clearing zone ([1]; free antibiotic 10 μg/ml, MDR A. baumannii) | inhibition (clearing zone) ([2]; free control antibiotics at 10 μg/ml) |
| --- | --- | --- | --- | --- | --- | --- |
| CN[C@H](CC(C)C)C(=O)N[C@H]1C(=O)N[C@@H](CC(N)=O)C(=O)N[C@H]2C(=O)N[C@H]3C(=O)N[C@H](C(=O)N[C@H](C(=O)O)c4cc(O)cc(O)c4-c4cc3ccc4O)[C@H](O)c3ccc(c(Cl)c3)Oc3cc2cc(c3O[C@@H]2O[C@H](CO)[C@@H](O)[C@H](O)[C@H]2O[C@H]2C[C@](C)(N)[C@H](O)[C@H](C)O2)Oc2ccc(cc2Cl)[C@H]1O [Free VCM, Vancomycin] | resistant | no inhibition | sensitive | ~6 mm | – | – |
| polymyxin B [Free PMB] | sensitive | – | resistant | – | ~6 mm | no inhibition |
